This note sets out measurements from patent publication US5459132A, “N6-[(Imidazo[1,2-a]pyridin-3-yl)ethyl]adenosines, their 5'-uronamide analogues and pharmaceutical compositions” (Laboratoires UPSA, priority 1994, dated 1995).

One experiment has as its system mice. As to the kind of experiment: Phenylbenzoquinone test (analgesic activity). Conditions: one hour before phenylbenzoquinone injection, 5 minutes observation. The format is in vivo. The procedure:
2. Phenylbenzoquinone test
The intraperitoneal injection of phenylbenzoquinone causes twisting and stretching movements in mice. Analgesics prevent or reduce this syndrome, which can be considered as the exteriorization of diffuse abdominal pain.
A 0.02% solution of phenylbenzoquinone in water is administered in a volume of 1 ml/100 g.
The products of the Examples are administered orally one hour before the injection of phenylbenzoquinone.
The stretching and twisting movements are counted for each mouse over an observation period of 5 minutes.

The next experiment relates to Balbc 3T3 fibroblasts. As to the kind of experiment: Inhibition of the cell proliferation induced by a growth factor (PDGF) in Balbc 3T3 fibroblasts, ^3H-thymidine incorporation. The format is cell-based. Conditions: for % inhibition of the incorporation of ^3H-thymidine stimulated by PDGF, 1E-6M: test molecule 1E-6M. How it is done:
Measurement of the inhibition of the cell proliferation induced by a growth factor in Balbc […] 3T3 fibroblasts
Inhibition of the cell proliferation induced by a growth factor (for example PDGF) is evaluated by measuring the incorporation of ^3 H-thymidine into Balbc 3T3 fibroblasts.
The Balbc 3T3 fibroblasts are cultivated at 37° C. with 5% of CO2 up to the point of subconfluence and are then placed for 18 hours under rest conditions in a serum-impoverished medium. They are subsequently pretreated for one hour with the test molecule (10^-5 M and/or 10^-6 M) and then stimulated for 22 hours with a growth factor (for example PDGF). ^3 H-Thymidine is incorporated over the last 2 hours. All these steps are performed at 37° C. with 5% of CO2.
The reaction is terminated by sucking off the reaction medium, detaching the cells and then filtering the lyzed cells through glass fiber filters.
The results are expressed as the percentage inhibition of the stimulation of ^3 H-thymidine incorporation induced by the growth factor.

On to `O=C(NC1CC1)[C@H]1O[C@@H](n2cnc3c(NCCc4cnc5c(OCc6ccccc6)cccn45)ncnc32)[C@H](O)[C@@H]1O` [Example 33, β-D-Ribofuranuronamido-N-cyclopropyl-1-deoxy-1-[6-[[2-[8-(phenylmethoxy)imidazo[1,2-a]pyridin-3-yl]ethyl]amino]-9H-purin-9-yl]], for which the “Phenylbenzoquinone test % inhibition at 30 mg/kg p.o.” value in the experiment with mice is 39%.
In the case of `Cc1ccc(C)c(COc2cccn3c(CCNc4ncnc5c4ncn5[C@@H]4O[C@H](C(=O)NC5CC5)[C@@H](O)[C@H]4O)cnc23)c1` [Example 34, β-D-Ribofuranuronamido-N-cyclopropyl-1-deoxy-1-[6-[[2-[[8-(2,5-dimethylphenyl)methoxy]imidazo[1,2-a]pyridin-3-yl]ethyl]amino]-9H-purin-9-yl]], the “Phenylbenzoquinone test % inhibition at 30 mg/kg p.o.” value in the experiment on mice was determined as 57%. In addition, the “% inhibition of the incorporation of ^3H-thymidine stimulated by PDGF, 1E-6M” value in the experiment on Balbc 3T3 fibroblasts is given as 72%.
As for `COCCOc1cccn2c(CCNc3ncnc4c3ncn4[C@@H]3O[C@H](C(=O)NC4CC4)[C@@H](O)[C@H]3O)cnc12` [Example 35, β-D-Ribofuranuronamido-N-cyclopropyl-1-deoxy-1-[6-[[2-[8-(2-methoxyethoxy)imidazo[1,2-a]pyridin-3-yl]ethyl]amino]-9H-purin-9-yl]], in the experiment with mice, the “Phenylbenzoquinone test % inhibition at 30 mg/kg p.o.” value is recorded as 25%.
Consider `Cc1ccc(C)c(COc2cccn3c(CCNc4ncnc5c4ncn5[C@@H]4O[C@H](C(=O)NC5CC5)[C@@H](O)[C@H]4O)c(C)nc23)c1` [Example 36, β-D-Ribofuranuronamido-N-cyclopropy-1-deoxy-1-[6-[[2-[[8-(2,5-dimethylphenyl)methoxy]-2-methylimidazo[1,2-a]pyridin-3-yl]ethyl]amino]-9H-purin-9-yl]], for which the “Phenylbenzoquinone test % inhibition at 30 mg/kg p.o.” value with mice came out at 63%. Also, the “% inhibition of the incorporation of ^3H-thymidine stimulated by PDGF, 1E-6M” value in the experiment with Balbc 3T3 fibroblasts was determined as 80%.
As to `O=C(NC1CC1)[C@H]1O[C@@H](n2cnc3c(NCCc4cnc5c(OC6CCCC6)cccn45)ncnc32)[C@H](O)[C@@H]1O` [Example 37, β-D-Ribofuranuronamido-N-cyclopropyl-1-deoxy-1-[6-[[2-[8-(cyclopentoxy)imidazo[1,2-a]pyridin-3-yl]ethyl]amino]-9H-purin-9-yl]], the “Phenylbenzoquinone test % inhibition at 30 mg/kg p.o.” value in the experiment with mice worked out at 57%. Besides, the “% inhibition of the incorporation of ^3H-thymidine stimulated by PDGF, 1E-5M” value in the experiment with Balbc 3T3 fibroblasts (test molecule 1E-5M) was found to be 63%.
